The record followed here is paper PMC3094853 (Chembiochem : a European journal of chemical biology, 2010).

Like-named read-outs stand apart in the source and are kept apart here.

In one assay the target is HER2 TK (Homo sapiens, UniProt P04626). The assay is described as follows: ELISA of biotinylated peptide phosphorylation. The format is biochemical. A general note: ELISA stands for enzyme-linked immunosorbent assay.
The next assay has as its target HER1 TK (Homo sapiens, UniProt P00533). The assay is described as follows: ELISA of biotinylated peptide phosphorylation. Type of assay: biochemical. The conditions noted are these: 20 µM ATP; 1.5 µM peptide substrate; 5 mM MgCl2; 5 mM MnCl2; HEPES pH 7.5; 23 °C.

A word on the IC50: it is the concentration that inhibits the measured activity by half. As to 4-trifluoromethylcinnamoyl pyrone [2e], the IC50 was found to be 160 nM on HER2 TK (20 µM ATP, 1.5 µM peptide substrate, 5 mM MgCl2, 5 mM MnCl2, HEPES pH 7.5, 23 °C) and 330 nM on HER1 TK.
On to `COc1cc(/C=C(\C#N)C(N)=O)cc(CSc2nc3ccccc3s2)c1O` [AG-825], for which the IC50 at HER2 TK worked out at 590 nM.
